Source: PubChem BioAssay (NCI)
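Compound exposure: 48 hours, 5 concentrations, 96-well plates. TGI denotes the concentration required for complete inhibition of growth.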

How the values were obtained:
Experiment in all cases: NCI-60 cell line screen, 48 h
SF-268 CNS = tested on: SF-268 CNS
SK-MEL-28 melanoma = tested on: SK-MEL-28 melanoma
DLD-1 colon = tested on: DLD-1 colon
IGROV1 ovarian = tested on: IGROV1 ovarian
COLO 205 colon = tested on: COLO 205 colon
SNB-75 CNS = tested on: SNB-75 CNS
MOLT-4 leukemia = tested on: MOLT-4 leukemia
SW-620 colon = tested on: SW-620 colon
SF-295 CNS = tested on: SF-295 CNS
SNB-78 CNS = tested on: SNB-78 CNS
HCC-2998 colon = tested on: HCC-2998 colon
LOX IMVI melanoma = tested on: LOX IMVI melanoma
DMS 273 small cell lung = tested on: DMS 273 small cell lung
CAKI-1 renal = tested on: CAKI-1 renal
SK-MEL-2 melanoma = tested on: SK-MEL-2 melanoma
ACHN renal = tested on: ACHN renal
RPMI-8226 leukemia = tested on: RPMI-8226 leukemia
CCRF-CEM leukemia = tested on: CCRF-CEM leukemia
M19-MEL melanoma = tested on: M19-MEL melanoma
HCT-15 colon = tested on: HCT-15 colon
SK-MEL-5 melanoma = tested on: SK-MEL-5 melanoma
HOP-62 NSCLC = tested on: HOP-62 NSCLC
OVCAR-8 ovarian = tested on: OVCAR-8 ovarian
K-562 leukemia = tested on: K-562 leukemia
OVCAR-5 ovarian = tested on: OVCAR-5 ovarian
KM20L2 colon = tested on: KM20L2 colon
TK-10 renal = tested on: TK-10 renal
EKVX NSCLC = tested on: EKVX NSCLC
SN12C renal = tested on: SN12C renal
OVCAR-3 ovarian = tested on: OVCAR-3 ovarian
SF-539 CNS = tested on: SF-539 CNS
786-0 renal = tested on: 786-0 renal
HT29 colon = tested on: HT29 colon
UO-31 renal = tested on: UO-31 renal
LXFL 529 NSCLC = tested on: LXFL 529 NSCLC
SK-OV-3 ovarian = tested on: SK-OV-3 ovarian
NCI-H522 lung = tested on: NCI-H522 lung
MALME-3M melanoma = tested on: MALME-3M melanoma
M14 melanoma = tested on: M14 melanoma
NCI-H460 lung = tested on: NCI-H460 lung
UACC-62 melanoma = tested on: UACC-62 melanoma
XF 498 CNS = tested on: XF 498 CNS
NCI-H23 lung = tested on: NCI-H23 lung
DMS 114 small cell lung = tested on: DMS 114 small cell lung
HOP-18 NSCLC = tested on: HOP-18 NSCLC
SNB-19 CNS = tested on: SNB-19 CNS
OVCAR-4 ovarian = tested on: OVCAR-4 ovarian
A549 NSCLC = tested on: A549 NSCLC
RXF 393 renal = tested on: RXF 393 renal
NCI-H226 lung = tested on: NCI-H226 lung
HCT-116 colon = tested on: HCT-116 colon
UACC-257 melanoma = tested on: UACC-257 melanoma
U251 CNS = tested on: U251 CNS
BT-549 breast = tested on: BT-549 breast
KM12 colon = tested on: KM12 colon
MDA-MB-435 = tested on: MDA-MB-435
MDA-MB-231 breast = tested on: MDA-MB-231 breast
DU-145 prostate = tested on: DU-145 prostate
HOP-92 NSCLC = tested on: HOP-92 NSCLC
NCI/ADR-RES ovarian = tested on: NCI/ADR-RES ovarian
MCF7 breast = tested on: MCF7 breast
A498 renal = tested on: A498 renal
HL-60(TB) leukemia = tested on: HL-60(TB) leukemia
PC-3 prostate = tested on: PC-3 prostate
SR leukemia = tested on: SR leukemia
HS 578T breast = tested on: HS 578T breast
T-47D breast = tested on: T-47D breast
MDA-N = tested on: MDA-N

Work on `O=C(O)[C@@H](NS(=O)(=O)c1ccc(F)cc1)c1ccccc1` yielded a TGI (SF-268 CNS) greater than 100 µM, a TGI (SK-MEL-28 melanoma) greater than 100 µM and a TGI (DLD-1 colon) greater than 100 µM. The TGI (IGROV1 ovarian) was greater than 100 µM, the TGI (COLO 205 colon) was greater than 100 µM and the TGI (SNB-75 CNS) was greater than 100 µM. The TGI (MOLT-4 leukemia) was greater than 100 µM, the TGI (SW-620 colon) was greater than 100 µM and the TGI (SF-295 CNS) was greater than 100 µM. It also gave a TGI (SNB-78 CNS) greater than 100 µM, a TGI (HCC-2998 colon) greater than 100 µM and a TGI (LOX IMVI melanoma) greater than 100 µM. For the same compound, the TGI (DMS 273 small cell lung) was greater than 100 µM, the TGI (CAKI-1 renal) was greater than 100 µM and the TGI (SK-MEL-2 melanoma) was greater than 100 µM. The TGI (ACHN renal) was greater than 100 µM, the TGI (RPMI-8226 leukemia) was greater than 100 µM and the TGI (CCRF-CEM leukemia) was greater than 100 µM. The TGI (M19-MEL melanoma) was greater than 100 µM, the TGI (HCT-15 colon) was greater than 100 µM and the TGI (SK-MEL-5 melanoma) was greater than 100 µM. The TGI (HOP-62 NSCLC) was greater than 100 µM, the TGI (OVCAR-8 ovarian) was greater than 100 µM and the TGI (K-562 leukemia) was greater than 100 µM. For the same compound, the TGI (OVCAR-5 ovarian) was greater than 100 µM, the TGI (KM20L2 colon) was greater than 100 µM and the TGI (TK-10 renal) was greater than 100 µM. It also gave a TGI (EKVX NSCLC) greater than 100 µM, a TGI (SN12C renal) greater than 100 µM and a TGI (OVCAR-3 ovarian) greater than 100 µM. The TGI (SF-539 CNS) was greater than 100 µM, the TGI (786-0 renal) was greater than 100 µM and the TGI (HT29 colon) was greater than 100 µM. The TGI (UO-31 renal) was greater than 100 µM, the TGI (LXFL 529 NSCLC) was greater than 100 µM and the TGI (SK-OV-3 ovarian) was greater than 100 µM. For the same compound, the TGI (NCI-H522 lung) was greater than 100 µM, the TGI (MALME-3M melanoma) was greater than 100 µM and the TGI (M14 melanoma) was greater than 100 µM. It also gave a TGI (NCI-H460 lung) greater than 100 µM, a TGI (UACC-62 melanoma) greater than 100 µM and a TGI (XF 498 CNS) greater than 100 µM. For the same compound, the TGI (NCI-H23 lung) was greater than 100 µM, the TGI (DMS 114 small cell lung) was greater than 100 µM and the TGI (HOP-18 NSCLC) was greater than 100 µM. It also gave a TGI (SNB-19 CNS) greater than 100 µM, a TGI (OVCAR-4 ovarian) greater than 100 µM and a TGI (A549 NSCLC) greater than 100 µM. The TGI (RXF 393 renal) was greater than 100 µM, the TGI (NCI-H226 lung) was greater than 100 µM and the TGI (HCT-116 colon) was greater than 100 µM. The TGI (UACC-257 melanoma) was greater than 100 µM and the TGI (U251 CNS) was greater than 100 µM.

`COC(=O)N/N=C(/CC1(O)C(=O)Nc2ccc([N+](=O)[O-])cc21)c1ccccc1` (stereo not given) showed a TGI (SF-268 CNS) greater than 100 µM, a TGI (SK-MEL-28 melanoma) greater than 70.9 µM and a TGI (DLD-1 colon) greater than 100 µM. It also gave a TGI (BT-549 breast) of 92.3 µM, a TGI (IGROV1 ovarian) greater than 73.6 µM and a TGI (COLO 205 colon) greater than 82.5 µM. For the same compound, the TGI (SNB-75 CNS) was 54.9 µM, the TGI (MOLT-4 leukemia) was greater than 66.7 µM and the TGI (SW-620 colon) was greater than 69.4 µM. The TGI (SF-295 CNS) was 39.2 µM, the TGI (KM12 colon) was greater than 63.7 µM and the TGI (MDA-MB-435) was 57.3 µM. It also gave a TGI (SNB-78 CNS) of 50.6 µM, a TGI (HCC-2998 colon) greater than 100 µM and a TGI (LOX IMVI melanoma) of 36.1 µM. For the same compound, the TGI (DMS 273 small cell lung) was greater than 100 µM, the TGI (CAKI-1 renal) was greater than 100 µM and the TGI (SK-MEL-2 melanoma) was greater than 72.9 µM. The TGI (ACHN renal) was greater than 72.2 µM, the TGI (RPMI-8226 leukemia) was 97.2 µM and the TGI (CCRF-CEM leukemia) was greater than 76.6 µM. It also gave a TGI (M19-MEL melanoma) greater than 100 µM, a TGI (HCT-15 colon) greater than 70.6 µM and a TGI (MDA-MB-231 breast) of 44 µM. For the same compound, the TGI (SK-MEL-5 melanoma) was greater than 60.9 µM, the TGI (DU-145 prostate) was greater than 100 µM and the TGI (HOP-92 NSCLC) was greater than 100 µM. The TGI (NCI/ADR-RES ovarian) was 55.7 µM, the TGI (HOP-62 NSCLC) was greater than 90.2 µM and the TGI (MCF7 breast) was 5.61 µM. It also gave a TGI (OVCAR-8 ovarian) greater than 68.5 µM, a TGI (K-562 leukemia) greater than 87.2 µM and a TGI (OVCAR-5 ovarian) greater than 100 µM. The TGI (KM20L2 colon) was greater than 100 µM, the TGI (TK-10 renal) was 57.6 µM and the TGI (A498 renal) was 25.8 µM. It also gave a TGI (EKVX NSCLC) greater than 93.4 µM, a TGI (SN12C renal) greater than 100 µM and a TGI (OVCAR-3 ovarian) greater than 74.6 µM. The TGI (SF-539 CNS) was greater than 100 µM, the TGI (786-0 renal) was greater than 54.4 µM and the TGI (HL-60(TB) leukemia) was 58.8 µM. It also gave a TGI (HT29 colon) greater than 79.4 µM, a TGI (PC-3 prostate) greater than 100 µM and a TGI (UO-31 renal) of 91.6 µM. The TGI (LXFL 529 NSCLC) was greater than 100 µM, the TGI (SK-OV-3 ovarian) was greater than 100 µM and the TGI (NCI-H522 lung) was greater than 75.9 µM. For the same compound, the TGI (MALME-3M melanoma) was greater than 75.4 µM, the TGI (M14 melanoma) was greater than 64.8 µM and the TGI (NCI-H460 lung) was greater than 100 µM. The TGI (UACC-62 melanoma) was greater than 54.7 µM, the TGI (XF 498 CNS) was 46.5 µM and the TGI (NCI-H23 lung) was greater than 60.1 µM. It also gave a TGI (SR leukemia) greater than 68.3 µM, a TGI (DMS 114 small cell lung) greater than 100 µM and a TGI (SNB-19 CNS) greater than 100 µM. The TGI (HS 578T breast) was 73.3 µM, the TGI (OVCAR-4 ovarian) was greater than 84.7 µM and the TGI (A549 NSCLC) was greater than 100 µM. The TGI (RXF 393 renal) was 51.4 µM, the TGI (T-47D breast) was greater than 100 µM and the TGI (NCI-H226 lung) was 98.3 µM. The TGI (MDA-N) was 94.4 µM, the TGI (HCT-116 colon) was greater than 58.6 µM and the TGI (UACC-257 melanoma) was greater than 95.6 µM. The TGI (U251 CNS) was 76.9 µM.
